In article PMC5739799 (Oncotarget, 2017):

Test: Steady-state plasma pharmacokinetics after oral dosing for 5 days
Type: in vivo, BALB/c nu/nu mice
Description: Pharmacokinetic studies were performed in 6–8-week-old female BALB/c nu/nu mice (Charles River, Sulzfeld, Germany). […] Parent compounds and metabolites M-2 and M-5 were analyzed in plasma samples using validated bioanalytical liquid chromatography-tandem mass spectrometry (LC-MS/MS) methods according to an experimental protocol described earlier. PK parameters, namely the AUC(0–24)ss and Cmax, were calculated from plasma concentrations using a non-compartmental analysis.

[1] = after oral regorafenib 10 mg/kg/day for 5 days, total = molar sum of regorafenib, M-2, M-5

CNC(=O)c1cc(Oc2ccc(NC(=O)Nc3ccc(Cl)c(C(F)(F)F)c3)c(F)c2)cc[n+]1[O-] [M-2]
AUC(0–24)ss (percent of total) [1]: 9% of total
AUC(0–24)ss (percent of total) (after oral sorafenib tosylate 30 mg/kg/day for 5 days, total = molar sum of sorafenib and M-2): 1% of total

NC(=O)c1cc(Oc2ccc(NC(=O)Nc3ccc(Cl)c(C(F)(F)F)c3)c(F)c2)cc[n+]1[O-] [M-5]
AUC(0–24)ss (percent of total) [1]: 1% of total
